# In PubChem BioAssay (NCI):
#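 Method: 48-hour compound exposure of cells in 96-well plates, five concentrations, linear interpolation of endpoints. The concentration for full growth arrest is given as TGI.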
# Experiments:
# Assay in all cases: NCI anticancer screen, dose series, 48 h
# UACC-257 melanoma = system: UACC-257 melanoma
# OVCAR-3 ovarian = system: OVCAR-3 ovarian
# U251 CNS = system: U251 CNS
# MOLT-4 leukemia = system: MOLT-4 leukemia
# SK-MEL-5 melanoma = system: SK-MEL-5 melanoma
# EKVX NSCLC = system: EKVX NSCLC
# SW-620 colon = system: SW-620 colon
# HCT-116 colon = system: HCT-116 colon
# OVCAR-4 ovarian = system: OVCAR-4 ovarian
# CCRF-CEM leukemia = system: CCRF-CEM leukemia
# KM20L2 colon = system: KM20L2 colon
# HT29 colon = system: HT29 colon
# M19-MEL melanoma = system: M19-MEL melanoma
# NCI-H522 lung = system: NCI-H522 lung
# KM12 colon = system: KM12 colon
# IGROV1 ovarian = system: IGROV1 ovarian
# MALME-3M melanoma = system: MALME-3M melanoma
# A498 renal = system: A498 renal
# HCC-2998 colon = system: HCC-2998 colon
# RXF 393 renal = system: RXF 393 renal
# TK-10 renal = system: TK-10 renal
# OVCAR-8 ovarian = system: OVCAR-8 ovarian
# 786-0 renal = system: 786-0 renal
# HL-60(TB) leukemia = system: HL-60(TB) leukemia
# LXFL 529 NSCLC = system: LXFL 529 NSCLC
# SF-268 CNS = system: SF-268 CNS
# UACC-62 melanoma = system: UACC-62 melanoma
# SNB-78 CNS = system: SNB-78 CNS
# OVCAR-5 ovarian = system: OVCAR-5 ovarian
# RPMI-8226 leukemia = system: RPMI-8226 leukemia
# NCI-H23 lung = system: NCI-H23 lung
# SF-295 CNS = system: SF-295 CNS
# A549 NSCLC = system: A549 NSCLC
# DMS 114 small cell lung = system: DMS 114 small cell lung
# SR leukemia = system: SR leukemia
# LOX IMVI melanoma = system: LOX IMVI melanoma
# SK-OV-3 ovarian = system: SK-OV-3 ovarian
# HOP-62 NSCLC = system: HOP-62 NSCLC
# SN12C renal = system: SN12C renal
# NCI-H460 lung = system: NCI-H460 lung
# CAKI-1 renal = system: CAKI-1 renal
# HOP-92 NSCLC = system: HOP-92 NSCLC
# UO-31 renal = system: UO-31 renal
# HCT-15 colon = system: HCT-15 colon
# HOP-18 NSCLC = system: HOP-18 NSCLC
# COLO 205 colon = system: COLO 205 colon
# SF-539 CNS = system: SF-539 CNS
# DMS 273 small cell lung = system: DMS 273 small cell lung
# ACHN renal = system: ACHN renal
# SK-MEL-28 melanoma = system: SK-MEL-28 melanoma
# SNB-75 CNS = system: SNB-75 CNS
# SK-MEL-2 melanoma = system: SK-MEL-2 melanoma
# SNB-19 CNS = system: SNB-19 CNS
# DLD-1 colon = system: DLD-1 colon
# K-562 leukemia = system: K-562 leukemia
# M14 melanoma = system: M14 melanoma
# NCI-H226 lung = system: NCI-H226 lung
# XF 498 CNS = system: XF 498 CNS
# RXF-631 renal = system: RXF-631 renal
smiles,measurement,setting,value
CN(C)c1nc(N(C)C)nc(N(C)CN(C)c2nc(N(C)C)nc(N(C)C)n2)n1,TGI,UACC-257 melanoma,> 100 µM
same,TGI,OVCAR-3 ovarian,> 100 µM
same,TGI,U251 CNS,> 100 µM
same,TGI,MOLT-4 leukemia,> 100 µM
same,TGI,SK-MEL-5 melanoma,> 100 µM
same,TGI,EKVX NSCLC,> 100 µM
same,TGI,SW-620 colon,> 100 µM
same,TGI,HCT-116 colon,> 100 µM
same,TGI,OVCAR-4 ovarian,> 100 µM
same,TGI,CCRF-CEM leukemia,> 100 µM
same,TGI,KM20L2 colon,> 100 µM
same,TGI,HT29 colon,> 100 µM
same,TGI,M19-MEL melanoma,> 100 µM
same,TGI,NCI-H522 lung,> 100 µM
same,TGI,KM12 colon,> 100 µM
same,TGI,IGROV1 ovarian,> 100 µM
same,TGI,MALME-3M melanoma,> 100 µM
same,TGI,A498 renal,> 100 µM
same,TGI,HCC-2998 colon,> 100 µM
same,TGI,RXF 393 renal,> 100 µM
same,TGI,TK-10 renal,> 100 µM
same,TGI,OVCAR-8 ovarian,> 100 µM
same,TGI,786-0 renal,32.9 µM
same,TGI,HL-60(TB) leukemia,> 100 µM
same,TGI,LXFL 529 NSCLC,> 100 µM
same,TGI,SF-268 CNS,> 100 µM
same,TGI,UACC-62 melanoma,> 100 µM
same,TGI,SNB-78 CNS,> 100 µM
same,TGI,OVCAR-5 ovarian,> 100 µM
same,TGI,RPMI-8226 leukemia,> 100 µM
same,TGI,NCI-H23 lung,> 100 µM
same,TGI,SF-295 CNS,> 100 µM
same,TGI,A549 NSCLC,> 100 µM
same,TGI,DMS 114 small cell lung,> 100 µM
same,TGI,SR leukemia,> 100 µM
same,TGI,LOX IMVI melanoma,> 100 µM
same,TGI,SK-OV-3 ovarian,> 100 µM
same,TGI,HOP-62 NSCLC,> 100 µM
same,TGI,SN12C renal,> 100 µM
same,TGI,NCI-H460 lung,> 100 µM
same,TGI,CAKI-1 renal,> 100 µM
same,TGI,HOP-92 NSCLC,> 100 µM
same,TGI,UO-31 renal,> 100 µM
same,TGI,HCT-15 colon,> 100 µM
same,TGI,HOP-18 NSCLC,> 100 µM
same,TGI,COLO 205 colon,> 100 µM
same,TGI,SF-539 CNS,> 100 µM
same,TGI,DMS 273 small cell lung,> 100 µM
same,TGI,ACHN renal,> 100 µM
same,TGI,SK-MEL-28 melanoma,> 100 µM
same,TGI,SNB-75 CNS,> 100 µM
same,TGI,SK-MEL-2 melanoma,> 100 µM
same,TGI,SNB-19 CNS,> 100 µM
same,TGI,DLD-1 colon,> 100 µM
same,TGI,K-562 leukemia,> 100 µM
same,TGI,M14 melanoma,> 100 µM
CCN(CC)C(=O)c1c(N2CCOCC2)cc(N(CC)CC)oc1=O,TGI,UACC-257 melanoma,> 100 µM
same,TGI,OVCAR-3 ovarian,> 100 µM
same,TGI,U251 CNS,> 100 µM
same,TGI,MOLT-4 leukemia,> 100 µM
same,TGI,EKVX NSCLC,> 100 µM
same,TGI,SW-620 colon,> 100 µM
same,TGI,HCT-116 colon,> 100 µM
same,TGI,OVCAR-4 ovarian,> 100 µM
same,TGI,NCI-H226 lung,> 100 µM
same,TGI,CCRF-CEM leukemia,> 100 µM
same,TGI,KM20L2 colon,> 100 µM
same,TGI,HT29 colon,> 100 µM
same,TGI,M19-MEL melanoma,> 100 µM
same,TGI,NCI-H522 lung,> 100 µM
same,TGI,KM12 colon,> 100 µM
same,TGI,IGROV1 ovarian,> 100 µM
same,TGI,MALME-3M melanoma,> 100 µM
same,TGI,A498 renal,> 100 µM
same,TGI,HCC-2998 colon,> 100 µM
same,TGI,RXF 393 renal,> 100 µM
same,TGI,TK-10 renal,> 100 µM
same,TGI,OVCAR-8 ovarian,> 100 µM
same,TGI,786-0 renal,> 100 µM
same,TGI,HL-60(TB) leukemia,> 100 µM
same,TGI,LXFL 529 NSCLC,> 100 µM
same,TGI,SF-268 CNS,> 100 µM
same,TGI,UACC-62 melanoma,> 100 µM
same,TGI,SNB-78 CNS,> 100 µM
same,TGI,RPMI-8226 leukemia,> 100 µM
same,TGI,NCI-H23 lung,> 100 µM
same,TGI,SF-295 CNS,> 100 µM
same,TGI,A549 NSCLC,> 100 µM
same,TGI,DMS 114 small cell lung,> 100 µM
same,TGI,SR leukemia,> 100 µM
same,TGI,LOX IMVI melanoma,> 100 µM
same,TGI,SK-OV-3 ovarian,> 100 µM
same,TGI,HOP-62 NSCLC,> 100 µM
same,TGI,SN12C renal,> 100 µM
same,TGI,NCI-H460 lung,> 100 µM
same,TGI,HOP-92 NSCLC,> 100 µM
same,TGI,UO-31 renal,> 100 µM
same,TGI,HCT-15 colon,> 100 µM
same,TGI,HOP-18 NSCLC,> 100 µM
same,TGI,COLO 205 colon,> 100 µM
same,TGI,SF-539 CNS,> 100 µM
same,TGI,DMS 273 small cell lung,> 100 µM
same,TGI,ACHN renal,> 100 µM
same,TGI,SK-MEL-28 melanoma,> 100 µM
same,TGI,SNB-75 CNS,> 100 µM
same,TGI,SK-MEL-2 melanoma,> 100 µM
same,TGI,XF 498 CNS,> 100 µM
same,TGI,SNB-19 CNS,> 100 µM
same,TGI,DLD-1 colon,> 100 µM
same,TGI,K-562 leukemia,> 100 µM
same,TGI,M14 melanoma,> 100 µM
COc1cc2ccc(CC#N)cc2cc1OC,TGI,UACC-257 melanoma,> 100 µM
same,TGI,U251 CNS,> 100 µM
same,TGI,MOLT-4 leukemia,> 100 µM
same,TGI,SK-MEL-5 melanoma,> 100 µM
same,TGI,EKVX NSCLC,> 100 µM
same,TGI,SW-620 colon,> 100 µM
same,TGI,OVCAR-4 ovarian,> 100 µM
same,TGI,NCI-H226 lung,> 100 µM
same,TGI,CCRF-CEM leukemia,> 100 µM
same,TGI,KM20L2 colon,> 100 µM
same,TGI,HT29 colon,> 100 µM
same,TGI,M19-MEL melanoma,> 100 µM
same,TGI,KM12 colon,> 100 µM
same,TGI,MALME-3M melanoma,> 100 µM
same,TGI,A498 renal,> 100 µM
same,TGI,RXF 393 renal,> 100 µM
same,TGI,TK-10 renal,> 100 µM
same,TGI,OVCAR-8 ovarian,> 100 µM
same,TGI,786-0 renal,> 100 µM
same,TGI,HL-60(TB) leukemia,> 100 µM
same,TGI,LXFL 529 NSCLC,> 100 µM
same,TGI,SF-268 CNS,> 100 µM
same,TGI,SNB-78 CNS,> 100 µM
same,TGI,OVCAR-5 ovarian,> 100 µM
same,TGI,NCI-H23 lung,> 100 µM
same,TGI,SF-295 CNS,> 100 µM
same,TGI,A549 NSCLC,> 100 µM
same,TGI,DMS 114 small cell lung,> 100 µM
same,TGI,SR leukemia,> 100 µM
same,TGI,LOX IMVI melanoma,> 100 µM
same,TGI,SK-OV-3 ovarian,> 100 µM
same,TGI,HOP-62 NSCLC,> 100 µM
same,TGI,SN12C renal,> 100 µM
same,TGI,NCI-H460 lung,> 100 µM
same,TGI,CAKI-1 renal,> 100 µM
same,TGI,HOP-92 NSCLC,> 100 µM
same,TGI,UO-31 renal,> 100 µM
same,TGI,SF-539 CNS,> 100 µM
same,TGI,DMS 273 small cell lung,> 100 µM
same,TGI,ACHN renal,> 100 µM
same,TGI,SK-MEL-28 melanoma,> 100 µM
same,TGI,SK-MEL-2 melanoma,> 100 µM
same,TGI,XF 498 CNS,> 100 µM
same,TGI,SNB-19 CNS,> 100 µM
same,TGI,RXF-631 renal,> 100 µM
same,TGI,DLD-1 colon,> 100 µM
same,TGI,K-562 leukemia,> 100 µM
CC(C)C(/C=C/c1ccccc1)=N\NC(=O)N/N=C(/C=C/c1ccccc1)C(C)C,TGI,UACC-257 melanoma,> 100 µM
same,TGI,U251 CNS,> 100 µM
same,TGI,MOLT-4 leukemia,54.3 µM
same,TGI,SK-MEL-5 melanoma,53.7 µM
same,TGI,EKVX NSCLC,45.8 µM
same,TGI,SW-620 colon,> 100 µM
same,TGI,HCT-116 colon,45 µM
same,TGI,OVCAR-4 ovarian,> 100 µM
same,TGI,NCI-H226 lung,55.4 µM
same,TGI,CCRF-CEM leukemia,> 100 µM
same,TGI,KM20L2 colon,93.6 µM
same,TGI,HT29 colon,> 100 µM
same,TGI,M19-MEL melanoma,76.9 µM
same,TGI,NCI-H522 lung,58.6 µM
same,TGI,KM12 colon,> 100 µM
same,TGI,IGROV1 ovarian,> 100 µM
same,TGI,HCC-2998 colon,> 100 µM
same,TGI,TK-10 renal,> 100 µM
same,TGI,OVCAR-8 ovarian,> 100 µM
same,TGI,786-0 renal,41.9 µM
same,TGI,HL-60(TB) leukemia,45.9 µM
same,TGI,LXFL 529 NSCLC,75.3 µM
same,TGI,SF-268 CNS,> 100 µM
same,TGI,UACC-62 melanoma,> 100 µM
same,TGI,SNB-78 CNS,> 100 µM
same,TGI,OVCAR-5 ovarian,> 100 µM
same,TGI,RPMI-8226 leukemia,> 100 µM
same,TGI,NCI-H23 lung,> 100 µM
same,TGI,SF-295 CNS,> 100 µM
same,TGI,A549 NSCLC,> 100 µM
same,TGI,DMS 114 small cell lung,60.1 µM
same,TGI,SR leukemia,87.2 µM
same,TGI,LOX IMVI melanoma,> 100 µM
same,TGI,SK-OV-3 ovarian,> 100 µM
same,TGI,HOP-62 NSCLC,> 100 µM
same,TGI,SN12C renal,33.2 µM
same,TGI,NCI-H460 lung,33.4 µM
same,TGI,CAKI-1 renal,30.6 µM
same,TGI,HOP-92 NSCLC,91.3 µM
same,TGI,UO-31 renal,93 µM
same,TGI,HCT-15 colon,80.9 µM
same,TGI,COLO 205 colon,44.3 µM
same,TGI,SF-539 CNS,> 100 µM
same,TGI,DMS 273 small cell lung,55.1 µM
same,TGI,ACHN renal,> 100 µM
same,TGI,SK-MEL-28 melanoma,> 100 µM
same,TGI,SNB-75 CNS,92.5 µM
same,TGI,SK-MEL-2 melanoma,52 µM
same,TGI,XF 498 CNS,77.4 µM
same,TGI,SNB-19 CNS,> 100 µM
same,TGI,DLD-1 colon,> 100 µM
same,TGI,K-562 leukemia,> 100 µM
same,TGI,M14 melanoma,> 100 µM
